Consider three molecules from ChEMBL document CHEMBL5532636 (Eur J Med Chem, 2023).

Structures are written as SMILES. pEC50, pIC50: −log10 of the molar value. Converted amounts (≈) assume the structure as drawn.

Data set [1] deals with Replicase polyprotein 1ab (Severe acute respiratory syndrome coronavirus 2, UniProt P0DTD1). As to the kind of experiment: Inhibition of SARS-CoV-2 PLpro using Ubiquitin-AMC as substrate by continuous kinetic assay.
Data set [2] is described as follows: Oral bioavailability in monkey. Type of data set: ADME, organism-based, Macaca mulatta. The conditions noted are these: rhesus monkey, in vivo.
A short description of data set [3]: Aqueous solubility of compound. The class given is physicochemical. The conditions noted are these: buffer.
The test system of data set [4] is Severe acute respiratory syndrome coronavirus 2. As to the kind of experiment: Binding affinity to SARS-CoV-2 nsp12 assessed as change in melting temperature preincubated for 20 mins followed by heating by thermal shift assay.
Data set [5] in a line: Cytotoxicity against African green monkey Vero cells. The conditions noted are these: chlorocebus sabaeus. Type of data set: toxicity, cell-based.
Data set [6] deals with SARS-CoV-2. As to the kind of experiment: Inhibition of SARS-CoV-2 pseudovirus entry in human Huh-7 cells at 30 uM preincubated with cell culture for 1 hr followed by pseudovirus infection measured after 48 hrs by luciferase reporter gene assay relative to control. The class given is functional. The settings on record: Severe acute respiratory syndrome coronavirus 2, Huh-7, time 49 hrs.

The nature of data set [7]: Cytotoxicity against African green monkey Vero cells incubated for 4 days by MTS assay. The class given is toxicity, cell-based. The settings on record: chlorocebus sabaeus, time 4 day.
Data set [8] can be described thus: Cytotoxicity against human Calu-3 cells incubated for 4 days by MTS assay. The class given is toxicity, cell-based. The conditions noted are these: time 4 day.
Data set [9] can be described thus: Cytotoxicity against African green monkey Vero cells by CCK8 assay. The class given is toxicity, cell-based. The settings on record: chlorocebus sabaeus.
Data set [10] relates to Human coronavirus OC43. As to the kind of experiment: Antiviral activity against HCoV-OC43 infected in human HRT-18 cells assessed as inhibition in viral replication at 12.5 ug/ml preincubated with cell culture for 1 hr and further infected with virus for 1 hr followed by removal of virus particles and subsequent replacement of medium containing compound measured for 96 hrs post-infection by RT-PCR analysis relative to control. The conditions noted are these: Betacoronavirus 1, HRT-18, time 97 hrs. The class given is functional, HRT-18 cell line.

Data set [11] concerns Bovine coronavirus. As to the kind of experiment: Antiviral activity against B-CoV infected in human HRT-18 cells assessed as inhibition in viral replication at 25 ug/ml preincubated with cell culture for 1 hr and further infected with virus for 1 hr followed by removal of virus particles and subsequent replacement of medium containing compound measured for 96 hrs post-infection by RT-PCR analysis relative to control. Type of data set: functional, HRT-18 cell line. The conditions noted are these: Betacoronavirus 1, HRT-18, time 98 hrs.

Data set [12] in a line: Inhibition of C-terminal GST-tagged full-length recombinant SARS-CoV 3CLpro expressed in Escherichia coli BL21(DE3) using MCA-AVLQSGFR-Lys(Dnp)-Lys-NH2 as substrate preincubated for 10 mins followed by substrate addition measured for 3.5 mins by FRET assay. The arrangement: species or system Severe acute respiratory syndrome-related coronavirus.
The target of data set [13] is Replicase polyprotein 1ab (Severe acute respiratory syndrome coronavirus 2) (UniProt P0DTD1). As to the kind of experiment: Inhibition of SARS-CoV-2 3CLpro at 100 ug/ml preincubated for 30 mins followed by substrate addition measured after 4 hrs by fluorescence assay relative to control. The settings on record: dose 100.0 µg/ml, time 4.5 hrs.
The target is the same in data set [14]. Nature of the data set: Inhibition of full-length SARS-CoV-2 PLpro expressed in Escherichia coli BL21(DE3) using RLRGG-AMC as substrate at 50 uM preincubated for 10 mins followed by substrate addition measured for 5 mins by FRET assay relative to control. The settings on record: time 15.0 min.
For data set [15] the target is unchanged. Nature of the data set: Binding affinity to SARS-CoV-2 nsp14 assessed as change in melting temperature preincubated for 20 mins followed by heating by thermal shift assay.
In data set [16] the test system is Severe acute respiratory syndrome coronavirus 2. As to the kind of experiment: Binding affinity to SARS-CoV-2 nsp5 assessed as change in melting temperature preincubated for 20 mins followed by heating by thermal shift assay.
Data set [17] addresses Xanthine dehydrogenase/oxidase (Bos taurus, UniProt P80457). Nature of the data set: Inhibition of bovine milk xanthine oxidase using xanthine as substrate preincubated for 30 mins followed by substrate addition measured for 200 secs by spectrophotometry.
The nature of data set [18]: Antioxidant activity assessed as DPPH radical scavenging activity at 200 uM measured after 2 mins by ESR spectroscopy relative to control. Type of data set: functional.
Data set [19] is described as follows: Antioxidant activity assessed as DPPH radical scavenging activity at 50 uM measured after 2 mins by ESR spectroscopy relative to control. Type of data set: functional.
The nature of data set [20]: Antioxidant activity assessed as DPPH radical scavenging activity at 25 uM measured after 2 mins by ESR spectroscopy relative to control. Type of data set: functional.
Data set [21] deals with T1, Xanthine dehydrogenase/oxidase (Homo sapiens, UniProt P47989). As to the kind of experiment: Inhibition of xanthine oxidase (unknown origin).
Data set [22] can be described thus: Cmax in Sprague-Dawley rat at 224 umol/kg, po measured for 2160 mins. The class given is ADME, organism-based. The conditions noted are these: in vivo, 36 h, dose 224 µmol/kg.
The nature of data set [23]: AUC (0 to 360 min) in Sprague-Dawley rat at 224 umol/kg, po. The class given is ADME. The conditions noted are these: in vivo, 6 h, dose 224 µmol/kg.
The nature of data set [24]: Drug metabolism in Sprague-Dawley rat assessed as circulating drug conjugates by measuring AUC (0 to 360 min) at 37 umol/kg, iv. The settings on record: in vivo, 6 h, dose 37 µmol/kg. Type of data set: ADME.
Data set [25] can be described thus: AUC (0 to 360 min) in Sprague-Dawley rat at 37 umol/kg, iv. The class given is ADME. The conditions noted are these: in vivo, 6 h, dose 37 µmol/kg.
The nature of data set [26]: Oral bioavailability in rat. Type of data set: ADME, organism-based. The settings on record: in vivo.
Data set [27] can be described thus: Apparent permeability in human Caco-2 cells measured for 30 to 180 mins by HPLC analysis. The settings on record: time 30-180 min. The class given is ADME, cell-based.
A short description of data set [28]: Solubility of compound in water. Type of data set: physicochemical.
Data set [29] deals with SARS-CoV-2. Nature of the data set: Antiviral activity against SARS-CoV-2 TY/WK-521 infected in African green monkey Vero E6 cells assessed as reduction in viral replication preincubated with cell culture for 1 hr and further infected with virus for 2 hrs followed by compound washout and subsequent addition of medium containing compounds measured for 48 hrs post-infection by qRT-PCR analysis. The conditions noted are these: Severe acute respiratory syndrome coronavirus 2, TY/WK-521, Vero C1008. Type of data set: functional, organism-based.

Data set [30] is described as follows: Cytotoxicity against African green monkey Vero E6 cells assessed as reduction in cell viability incubated for 3 days by MTT assay. Type of data set: toxicity, cell-based, Vero C1008. The conditions noted are these: chlorocebus sabaeus, time 3 day.
Data set [31] deals with SARS-CoV-2. As to the kind of experiment: Antiviral activity against SARS-CoV-2 infected in African green monkey Vero cells assessed as reduction in viral replication. Type of data set: functional, organism-based. The settings on record: Severe acute respiratory syndrome coronavirus 2, Vero.
Data set [32] deals with Angiotensin-converting enzyme 2 (Homo sapiens) (UniProt Q9BYF1). Nature of the data set: Inhibition of ACE2 in human SAEC cells at 25 uM incubated for 6 days by ELISA relative to control. The class given is cell-based. The settings on record: time 6.0 day.
Data set [33] shares this target. Nature of the data set: Synergistic inhibition of ACE2 in human SAEC cells at 25 uM incubated for 6 days in presence of ascorbic acid by ELISA relative to control. The class given is cell-based. The conditions noted are these: time 6.0 day.
Data set [34] deals with T2, Renin (Homo sapiens, UniProt P00797).
T2 sequence (P00797 whole entry): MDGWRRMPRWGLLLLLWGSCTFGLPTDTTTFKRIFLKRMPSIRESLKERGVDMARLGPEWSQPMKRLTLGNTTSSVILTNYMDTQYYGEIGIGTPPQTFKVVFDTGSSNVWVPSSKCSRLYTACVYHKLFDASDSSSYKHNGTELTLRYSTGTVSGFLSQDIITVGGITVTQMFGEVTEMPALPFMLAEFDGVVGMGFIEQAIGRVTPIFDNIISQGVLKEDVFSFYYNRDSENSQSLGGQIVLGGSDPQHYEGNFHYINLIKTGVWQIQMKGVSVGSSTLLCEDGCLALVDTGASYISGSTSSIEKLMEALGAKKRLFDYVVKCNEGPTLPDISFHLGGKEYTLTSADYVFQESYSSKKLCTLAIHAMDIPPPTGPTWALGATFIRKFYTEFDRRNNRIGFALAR
Nature of the data set: Inhibition of recombinant human renin using Arg-Glu(EDANS)-lle-His-Pro-Phe-His-Leu-Val-lle-His-Thr-Lys(dabcyl)-Arg as substrate incubated for 5 to 10 mins by fluorescence based assay.

The target in data set [35] is Angiotensin-converting enzyme (Homo sapiens, UniProt P12821). Nature of the data set: Inhibition of ACE (unknown origin) using Hippuryo-histidyl-leucine as substrate incubated for 40 mins by absorbance based assay.
A short description of data set [36]: Inhibition of SARS-CoV-2 nsp15 endonuclease activity using 5'-FAM-dArUdAdAdA-TAMRA-3' as substrate measure for 1 hr by fluorescence based assay. The arrangement: species or system Severe acute respiratory syndrome coronavirus 2.
Data set [37] concerns SARS-CoV-2. Nature of the data set: Antiviral activity against SARS-CoV-2 NCCP 43326 infected in African green monkey Vero cells assessed as reduction in viral infection preincubated with cell culture for 30 mins and further infected with virus measured after 72 hrs by plaque reduction neutralization test method. Type of data set: functional, organism-based. The settings on record: Severe acute respiratory syndrome coronavirus 2, NCCP 43326, Vero.

The subject of data set [38] is Influenza A virus. Nature of the data set: Antiviral activity against Influenza A virus H1N1 FM/1/47 infected in BALB/c mouse assessed as decrease in recruitment of M1-polarized CD11b+ and F4/80+ macrophages in BALF at 80 mg/kg/day, po qd for 7 days by flow cytometry relative to control. The settings on record: time 7 day. On the set-up: scale not given: the % may be the effect or the level left. Type of data set: functional.

Data set [39] relates to Influenza A virus. As to the kind of experiment: Antiviral activity against Influenza A virus H1N1 FM/1/47 infected in BALB/c mouse assessed as macrophage polarization in BALF at 80 mg/kg/day, po qd for 7 days by flow cytometry (reference value: 95 %). Type of data set: functional. The conditions noted are these: time 7 day.
Data set [40] has as its target T1, Xanthine dehydrogenase/oxidase. As to the kind of experiment: Inhibition of xanthine oxidase (unknown origin) using xanthine as substrate preincubated for 30 mins followed by substrate addition by spectrophotometry.

T1 sequence (P47989 whole entry): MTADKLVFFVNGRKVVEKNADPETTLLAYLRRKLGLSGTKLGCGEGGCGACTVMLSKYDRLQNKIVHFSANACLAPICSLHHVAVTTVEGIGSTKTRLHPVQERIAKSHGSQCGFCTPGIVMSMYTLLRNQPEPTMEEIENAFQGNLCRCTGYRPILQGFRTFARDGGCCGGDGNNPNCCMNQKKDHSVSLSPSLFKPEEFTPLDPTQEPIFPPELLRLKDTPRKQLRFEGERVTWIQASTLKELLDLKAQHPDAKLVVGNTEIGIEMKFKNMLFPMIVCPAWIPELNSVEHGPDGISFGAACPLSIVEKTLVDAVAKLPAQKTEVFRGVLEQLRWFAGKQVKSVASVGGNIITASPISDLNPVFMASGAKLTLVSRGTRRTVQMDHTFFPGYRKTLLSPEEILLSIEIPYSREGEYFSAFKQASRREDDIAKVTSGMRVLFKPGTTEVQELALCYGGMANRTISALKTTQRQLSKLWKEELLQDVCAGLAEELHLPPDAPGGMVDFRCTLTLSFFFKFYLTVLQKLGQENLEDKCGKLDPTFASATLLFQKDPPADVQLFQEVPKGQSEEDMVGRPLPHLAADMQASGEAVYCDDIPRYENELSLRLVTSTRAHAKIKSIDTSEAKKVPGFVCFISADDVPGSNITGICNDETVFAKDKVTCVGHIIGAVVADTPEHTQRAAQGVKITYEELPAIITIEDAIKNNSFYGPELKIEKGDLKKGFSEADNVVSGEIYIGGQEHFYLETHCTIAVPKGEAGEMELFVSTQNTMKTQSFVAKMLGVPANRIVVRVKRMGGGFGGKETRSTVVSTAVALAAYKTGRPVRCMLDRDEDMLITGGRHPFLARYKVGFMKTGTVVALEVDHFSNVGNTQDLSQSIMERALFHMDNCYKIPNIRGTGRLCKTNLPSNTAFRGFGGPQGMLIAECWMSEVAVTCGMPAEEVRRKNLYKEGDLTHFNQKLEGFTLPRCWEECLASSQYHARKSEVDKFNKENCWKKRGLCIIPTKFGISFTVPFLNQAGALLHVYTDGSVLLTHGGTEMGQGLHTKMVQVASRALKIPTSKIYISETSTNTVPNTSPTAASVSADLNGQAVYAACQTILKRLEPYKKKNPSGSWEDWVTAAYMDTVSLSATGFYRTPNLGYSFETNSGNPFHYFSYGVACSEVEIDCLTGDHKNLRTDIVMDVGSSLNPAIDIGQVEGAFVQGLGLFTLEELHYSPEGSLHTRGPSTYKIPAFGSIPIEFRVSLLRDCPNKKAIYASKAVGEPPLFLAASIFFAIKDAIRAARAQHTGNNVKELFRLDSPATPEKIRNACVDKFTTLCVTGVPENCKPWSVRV
Angiotensin-converting enzyme 2 (Homo sapiens), sequence (Q9BYF1 18-805 limits assumed): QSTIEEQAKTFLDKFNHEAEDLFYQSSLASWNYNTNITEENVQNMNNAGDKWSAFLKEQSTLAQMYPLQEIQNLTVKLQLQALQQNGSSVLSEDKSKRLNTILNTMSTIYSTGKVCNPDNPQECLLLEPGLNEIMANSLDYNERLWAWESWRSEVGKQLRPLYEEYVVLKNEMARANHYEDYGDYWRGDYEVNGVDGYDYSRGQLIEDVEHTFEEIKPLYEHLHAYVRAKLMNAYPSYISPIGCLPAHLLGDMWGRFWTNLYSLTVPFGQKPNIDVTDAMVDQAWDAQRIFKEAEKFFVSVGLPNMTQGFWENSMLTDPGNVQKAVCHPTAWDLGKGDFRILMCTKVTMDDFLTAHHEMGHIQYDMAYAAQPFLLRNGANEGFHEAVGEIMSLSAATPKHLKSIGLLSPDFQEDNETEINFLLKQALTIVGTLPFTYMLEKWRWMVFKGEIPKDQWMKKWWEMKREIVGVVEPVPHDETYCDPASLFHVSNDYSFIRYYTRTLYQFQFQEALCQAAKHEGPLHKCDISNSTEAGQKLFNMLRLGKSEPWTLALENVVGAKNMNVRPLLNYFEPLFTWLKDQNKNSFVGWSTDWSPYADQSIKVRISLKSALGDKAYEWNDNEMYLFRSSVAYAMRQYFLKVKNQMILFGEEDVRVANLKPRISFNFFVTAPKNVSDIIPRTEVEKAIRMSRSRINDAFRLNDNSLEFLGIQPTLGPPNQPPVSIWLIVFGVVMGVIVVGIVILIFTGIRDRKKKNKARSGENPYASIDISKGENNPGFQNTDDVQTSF
Xanthine dehydrogenase/oxidase (Bos taurus, UniProt P80457), sequence (P80457 whole entry): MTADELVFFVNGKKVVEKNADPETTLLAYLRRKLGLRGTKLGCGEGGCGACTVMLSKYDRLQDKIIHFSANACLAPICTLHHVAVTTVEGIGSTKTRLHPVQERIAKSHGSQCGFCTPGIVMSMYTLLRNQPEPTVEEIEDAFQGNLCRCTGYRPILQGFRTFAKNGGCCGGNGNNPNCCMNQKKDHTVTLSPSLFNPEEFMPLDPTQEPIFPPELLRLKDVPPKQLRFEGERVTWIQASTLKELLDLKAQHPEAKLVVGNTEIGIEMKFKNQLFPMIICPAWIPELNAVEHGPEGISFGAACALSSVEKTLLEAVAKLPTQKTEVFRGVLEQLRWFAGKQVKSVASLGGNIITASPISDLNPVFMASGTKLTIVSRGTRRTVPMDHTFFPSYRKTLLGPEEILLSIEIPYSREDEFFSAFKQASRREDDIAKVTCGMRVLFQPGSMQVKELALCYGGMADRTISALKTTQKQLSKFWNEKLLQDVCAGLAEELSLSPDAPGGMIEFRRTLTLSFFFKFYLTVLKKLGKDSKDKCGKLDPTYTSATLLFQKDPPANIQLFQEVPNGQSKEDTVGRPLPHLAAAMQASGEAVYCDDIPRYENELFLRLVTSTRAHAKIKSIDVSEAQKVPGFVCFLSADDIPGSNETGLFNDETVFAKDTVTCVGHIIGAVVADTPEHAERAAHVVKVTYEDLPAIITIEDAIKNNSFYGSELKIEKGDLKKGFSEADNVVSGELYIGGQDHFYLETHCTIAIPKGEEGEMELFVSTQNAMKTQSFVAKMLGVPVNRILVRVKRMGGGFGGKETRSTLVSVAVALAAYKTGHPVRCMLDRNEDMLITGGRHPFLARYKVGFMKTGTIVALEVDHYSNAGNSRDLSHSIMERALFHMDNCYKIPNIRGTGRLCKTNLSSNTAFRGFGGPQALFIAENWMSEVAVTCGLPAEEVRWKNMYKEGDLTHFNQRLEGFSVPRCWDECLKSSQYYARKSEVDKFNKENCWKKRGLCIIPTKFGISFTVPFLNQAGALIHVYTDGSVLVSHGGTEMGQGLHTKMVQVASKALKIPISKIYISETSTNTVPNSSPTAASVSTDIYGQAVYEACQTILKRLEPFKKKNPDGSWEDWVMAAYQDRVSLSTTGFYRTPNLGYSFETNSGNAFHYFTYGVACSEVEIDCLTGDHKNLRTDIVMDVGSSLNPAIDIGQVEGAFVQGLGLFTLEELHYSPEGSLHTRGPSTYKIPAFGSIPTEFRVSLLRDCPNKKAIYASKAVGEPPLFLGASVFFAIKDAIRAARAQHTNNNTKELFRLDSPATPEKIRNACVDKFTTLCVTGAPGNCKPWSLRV
Angiotensin-converting enzyme, sequence (P12821 whole entry): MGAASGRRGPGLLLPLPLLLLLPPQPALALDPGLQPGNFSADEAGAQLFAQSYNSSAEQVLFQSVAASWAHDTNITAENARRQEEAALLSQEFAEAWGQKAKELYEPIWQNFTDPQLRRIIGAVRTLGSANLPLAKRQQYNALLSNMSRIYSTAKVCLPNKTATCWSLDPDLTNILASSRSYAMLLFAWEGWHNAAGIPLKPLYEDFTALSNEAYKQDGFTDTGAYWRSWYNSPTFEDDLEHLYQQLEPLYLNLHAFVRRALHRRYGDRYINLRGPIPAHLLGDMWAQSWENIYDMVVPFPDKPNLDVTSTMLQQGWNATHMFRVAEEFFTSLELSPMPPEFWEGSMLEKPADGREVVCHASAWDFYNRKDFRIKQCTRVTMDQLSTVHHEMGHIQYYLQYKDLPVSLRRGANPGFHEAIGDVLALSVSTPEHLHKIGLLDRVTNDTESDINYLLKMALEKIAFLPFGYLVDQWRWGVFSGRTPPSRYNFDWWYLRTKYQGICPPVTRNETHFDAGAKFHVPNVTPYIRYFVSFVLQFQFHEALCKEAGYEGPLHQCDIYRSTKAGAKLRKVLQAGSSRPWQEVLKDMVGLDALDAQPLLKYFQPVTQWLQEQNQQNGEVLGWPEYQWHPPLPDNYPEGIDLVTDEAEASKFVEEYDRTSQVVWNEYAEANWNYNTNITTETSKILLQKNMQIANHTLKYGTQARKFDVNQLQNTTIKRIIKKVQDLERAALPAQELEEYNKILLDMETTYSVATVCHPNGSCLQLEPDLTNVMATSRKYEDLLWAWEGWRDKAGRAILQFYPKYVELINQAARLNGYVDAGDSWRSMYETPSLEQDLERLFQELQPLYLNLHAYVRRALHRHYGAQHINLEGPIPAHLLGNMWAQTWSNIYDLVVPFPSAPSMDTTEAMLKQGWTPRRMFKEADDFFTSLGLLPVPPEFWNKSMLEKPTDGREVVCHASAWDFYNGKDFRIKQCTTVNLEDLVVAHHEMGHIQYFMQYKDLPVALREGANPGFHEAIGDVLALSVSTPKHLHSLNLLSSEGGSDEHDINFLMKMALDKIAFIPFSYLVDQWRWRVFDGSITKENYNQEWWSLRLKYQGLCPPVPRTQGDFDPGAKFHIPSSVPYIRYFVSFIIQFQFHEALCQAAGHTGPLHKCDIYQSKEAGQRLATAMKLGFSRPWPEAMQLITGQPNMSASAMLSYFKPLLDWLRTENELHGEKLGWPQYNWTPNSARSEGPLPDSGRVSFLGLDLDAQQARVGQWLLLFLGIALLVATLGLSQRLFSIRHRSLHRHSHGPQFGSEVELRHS

Molecule `CC(=O)Nc1ccc(C)c(C(=O)N[C@H](C)c2cccc3ccccc23)c1` gave a pIC50 in data set [1] of 5.76.

`O=c1cc(-c2ccccc2)oc2cc(O)c(O)c(O)c12` [BAICALEIN] came in with a bioavailability in data set [2] of 13.1%. The molecule also showed a solubility in data set [3] of 16.8 µg/mL (≈ 62.2 µM). For the same molecule, the ΔTm turned out to be 3.9 °C in data set [4], 1.5 °C in [15] and 0.9 °C in data set [16]. The values for the CC50 in data set [5] and in data set [9] were more than 200 µM and more than 500 µM, respectively. The molecule also showed an inhibition at 30 µM in data set [6] of 14.6%. Also, the CC50 at 96 h worked out at 8.6 µM in [7] and 9.1 µM in [8]. Also, in data set [10], the inhibition at 12.5 µg/mL amounted to 100%. For the same molecule, the inhibition at 25 µg/mL in data set [11] is 89.8%. Further, the pIC50 in data set [12] was 5.93; in data set [17], 5.12; in data set [21], 5.51. The values for the inhibition in data set [13] and in data set [14] were 94.7% and less than 50%, respectively. In addition, the Activity in data set [18] is more than 50%; in data set [19], 55%; in data set [20] it was 69%. Besides, in data set [22], the Cmax came out at 13.6 nM/ml. In addition, the AUC is listed as 2980.5 nM.min/ml in [23], 927.2 nM.min/ml in data set [24] and 297.6 nM.min/ml in data set [25].

Turning to `O=C(O)[C@H]1O[C@@H](Oc2cc3oc(-c4ccccc4)cc(=O)c3c(O)c2O)[C@H](O)[C@@H](O)[C@@H]1O` [BAICALIN], in data set [26], the F is given as 2.2%. In data set [27], the Papp worked out at 0.037 ×10⁻⁶ cm/s. The molecule further had a solubility in data set [28] of 67 µg/mL (≈ 150 µM). Further, the pEC50 in data set [29] was 5.06; in [31], 4.99; in data set [37], 4.08. Besides, the CC50 at 72 h in data set [30] is more than 1000 µM. Also, the CC50 in data set [5] is more than 200 µM. Also, the inhibition in data set [32] came out at 75%; in data set [33], 82%. Moreover, the pIC50 in data set [34] was 3.92; in [35] it was 2.65; in [36], 5.10; in data set [40], 4.26; in data set [17] it was 3.91; in data set [21], 3.80. Also, the half-maximal cytotoxic concentration (CC50) at 96 h in [7] and in data set [8] was more than 100 µM each time. Besides, the Activity in data set [38] is approximately 90%; in [39], 97%; in data set [19] it was 17%; in data set [20] it was 42%. This molecule also came in with a Cmax in data set [22] of 2.9 nM/ml. Besides, the AUC in data set [23] is recorded as 1943.7 nM.min/ml.
